In patent US8927500B2, “Peptidomimetic macrocycles” (Aileron Therapeutics, Inc., priority 2012, dated 2015):
pIC50, pKi: −log10 of the molar value. Where a SMILES comes first, the peptide text is derived from it. Bridges are numbered along the chain shown (N, C = ends). [ ]: non-standard residue; d: D form. Phe(4-COOH) = N[C@@H](Cc1ccc(C(=O)O)cc1)C(=O)O; R8 = C=CCCCCCC[C@@](C)(N)C(=O)O; Cba = N[C@@H](CC1CCC1)C(=O)O; S5 = C=CCCC[C@](C)(N)C(=O)O; Nle = CCCC[C@H](N)C(=O)O

How the values were obtained:
MDM2 = MDM2 (Homo sapiens, UniProt Q00987); test: Competitive fluorescence polarization assay for MDM2; format: binding; conditions: competitive FP assay, MDM2; for pIC50: read-out: IC50 (MDM2); for pKi: read-out: Ki (MDM2)
Chain of MDM2 (Q00987 1-125): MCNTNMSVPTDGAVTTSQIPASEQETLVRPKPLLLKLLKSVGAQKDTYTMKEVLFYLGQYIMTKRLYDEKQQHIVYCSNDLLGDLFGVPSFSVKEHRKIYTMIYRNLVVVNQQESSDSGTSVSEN

MDMX = target: T1, MDMX (Homo sapiens, UniProt O15151); test: Competitive fluorescence polarization assay for MDMX; format: binding; conditions: competitive FP assay; for pIC50: read-out: IC50 (MDMX); for pKi: read-out: Ki (MDMX)
T1 sequence (O15151 1-125): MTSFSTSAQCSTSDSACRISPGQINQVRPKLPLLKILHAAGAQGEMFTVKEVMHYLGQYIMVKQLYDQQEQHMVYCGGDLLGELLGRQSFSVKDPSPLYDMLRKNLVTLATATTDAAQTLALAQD

Caspase 3 = Caspase 3 detection assay in SJSA1 cells; format: cell-based; conditions: 48 h, Caspase 3 activation over DMSO-treated cells; for caspase 0.3 uM: 0.3 uM peptide; for caspase 3 uM: 3 uM peptide; for caspase 10 uM: 10 uM peptide; for caspase 30 uM: 30 uM peptide; for caspase 1 uM: 1 uM peptide
SJSA-1 cells = test: Cell lysis by peptidomimetic macrocycles (LDH release); format: cell-based; conditions: 1 h at 37C

SMILES | pIC50 (MDM2) | pKi (MDM2) | pIC50 (MDMX) | pKi (MDMX) | caspase 0.3 uM (Caspase 3) | caspase 3 uM (Caspase 3) | caspase 10 uM (Caspase 3) | caspase 30 uM (Caspase 3) | 6.25 uM % Lysed cells (1 h LDH) (SJSA-1 cells) [%] | 25 uM % Lysed cells (1 h LDH) (SJSA-1 cells) [%] | 50 uM % Lysed cells (1 h LDH) (SJSA-1 cells) [%] | caspase 1 uM (Caspase 3)
CCCC[C@H](NC(=O)[C@H](C)NC(=O)[C@H](CO)NC(=O)[C@]1(C)CCCC=CCCCCCC[C@@](C)(NC(=O)[C@H](Cc2ccccc2)NC(=O)[C@@H](NC(=O)[C@H](CC(C)C)NC(C)=O)[C@@H](C)O)C(=O)N[C@@H](CCC(=O)O)C(=O)N[C@@H](Cc2ccc(C(=O)O)cc2)C(=O)N[C@@H](Cc2c[nH]c3ccccc23)C(=O)N[C@@H](C)C(=O)N[C@@H](CCC(N)=O)C(=O)N[C@@H](CC2CCC2)C(=O)N1)C(=O)N[C@@H](C)C(N)=O [compound 244] (Ac-LTF[R8]E[Phe(4-COOH)]WAQ[Cba][S5]SA[Nle]A-NH2; staple 4-11) | 7.00 to 8.00 | > 8.00 | 7.00 to 8.00 | > 8.00 | 1 | 2 | 7 | 17 | 0 | 0 | 4 | –
CCCC[C@H](NC(=O)[C@H](C)NC(=O)[C@H](CO)NC(=O)[C@]1(C)CCCC=CCCCCCC[C@@](C)(NC(=O)[C@H](Cc2ccccc2)NC(=O)[C@@H](NC(=O)[C@H](CC(C)C)NC(C)=O)[C@@H](C)O)C(=O)N[C@@H](CCC(=O)O)C(=O)N[C@@H](Cc2ccc(O)cc2)C(=O)N[C@@H](Cc2c[nH]c3ccccc23)C(=O)N[C@@H](CO)C(=O)N[C@@H](CCC(N)=O)C(=O)N[C@@H](CC2CCC2)C(=O)N1)C(=O)N[C@@H](C)C(N)=O [compound 245] (Ac-LTF[R8]EYWSQ[Cba][S5]SA[Nle]A-NH2; staple 4-11) | 7.00 to 8.00 | > 8.00 | 7.00 to 8.00 | 7.00 to 8.00 | 1 | 3 | 9 | 16 | 1 | 11 | 56 | –
CC[C@H](C)[C@H](NC(=O)[C@H](C)NC(=O)[C@H](C)NC(=O)[C@]1(C)CCCC=CCCCCCC[C@@](C)(NC(=O)[C@H](Cc2ccccc2)NC(=O)[C@@H](NC(=O)[C@H](CC(C)C)NC(C)=O)[C@@H](C)O)C(=O)N[C@@H](CCC(=O)O)C(=O)N[C@@H](Cc2ccc(O)cc2)C(=O)N[C@@H](Cc2c[nH]c3ccccc23)C(=O)N[C@@H](C)C(=O)N[C@@H](CCC(N)=O)C(=O)N[C@@H](CC2CCC2)C(=O)N1)C(=O)N[C@H](C)C(N)=O [compound 247] (Ac-LTF[R8]EYWAQ[Cba][S5]AAI[dA]-NH2; staple 4-11) | 7.00 to 8.00 | > 8.00 | 7.00 to 8.00 | 7.00 to 8.00 | 1 | 3 | 11 | 24 | 0 | 0 | 4 | –
CC[C@H](C)[C@H](NC(=O)[C@H](C)NC(=O)[C@H](C)NC(=O)[C@]1(C)CCC/C=C/CCCCCC[C@@](C)(NC(=O)[C@H](Cc2ccccc2)NC(=O)[C@@H](NC(=O)[C@H](CC(C)C)NC(C)=O)[C@@H](C)O)C(=O)N[C@@H](CCC(=O)O)C(=O)N[C@@H](Cc2ccc(C(=O)O)cc2)C(=O)N[C@@H](Cc2c[nH]c3ccccc23)C(=O)N[C@@H](C)C(=O)N[C@@H](CCC(N)=O)C(=O)N[C@@H](CC2CCC2)C(=O)N1)C(=O)N[C@H](C)C(N)=O [compound 249] (Ac-LTF[R8]E[Phe(4-COOH)]WAQ[Cba][S5]AAI[dA]-NH2; staple (E) 4-11) | 7.00 to 8.00 | > 8.00 | 7.00 to 8.00 | > 8.00 | 2 | 5 | 11 | 23 | 0 | 0 | 0 | –
CC(=O)N[C@@H](CC(C)C)C(=O)N[C@H](C(=O)N[C@@H](Cc1ccccc1)C(=O)N[C@]1(C)CCCCCC/C=C/CCC[C@@](C)(C(=O)N[C@@H](C)C(=O)N[C@@H](C)C(=O)N[C@@H](C)C(=O)N[C@@H](C)C(=O)N[C@@H](C)C(=O)N[C@H](C)C(N)=O)NC(=O)[C@H](CC2CCC2)NC(=O)[C@H](CCC(N)=O)NC(=O)[C@H](C)NC(=O)[C@H](Cc2c[nH]c3ccccc23)NC(=O)[C@H](Cc2ccc(C(=O)O)cc2)NC(=O)[C@H](CCC(=O)O)NC1=O)[C@@H](C)O [compound 349] (Ac-LTF[R8]E[Phe(4-COOH)]WAQ[Cba][S5]AAAAA[dA]-NH2; staple (E) 4-11) | > 8.00 | > 8.00 | 7.00 to 8.00 | > 8.00 | 1 | 11 | 16 | 24 | 0 | 0 | 0 | 8
CC(=O)N[C@@H](CC(C)C)C(=O)N[C@H](C(=O)N[C@@H](Cc1ccccc1)C(=O)N[C@]1(C)CCCCCC/C=C/CCC[C@@](C)(C(=O)N[C@@H](C)C(=O)N[C@@H](C)C(=O)N[C@@H](C)C(=O)N[C@@H](C)C(=O)N[C@@H](C)C(=O)N[C@H](C)C(N)=O)NC(=O)[C@H](CC2CCC2)NC(=O)[C@H](CCC(N)=O)NC(=O)[C@H](CO)NC(=O)[C@H](Cc2c[nH]c3ccccc23)NC(=O)[C@H](Cc2ccc(O)cc2)NC(=O)[C@H](CCC(=O)O)NC1=O)[C@@H](C)O [compound 351] (Ac-LTF[R8]EYWSQ[Cba][S5]AAAAA[dA]-NH2; staple (E) 4-11) | > 8.00 | > 8.00 | 7.00 to 8.00 | > 8.00 | 3 | 13 | 15 | 24 | 0 | 0 | 0 | 9
